Several values for one entry are separate records, joined by “and”; a condition that tells them apart may be missing. Equal entries are not always repeated. After the bases stand the sugars from the 5' end (letter, count) and the backbone: PS all phosphorothioate, else s phosphorothioate and o phosphodiester by linkage. Methylation of C is not given here. e = 2'-O-(2-methoxyethyl) (MOE); k = constrained ethyl (cEt); d = 2'-deoxy (DNA)
Biological target: IRF4
Settings: ASO

Sequence | target mRNA inhibition (SK-MEL-28, 4 µM) | target mRNA inhibition (MM.1R, 1 µM) | further results
ATGAGATATTCCTCTC (sugars k3 d10 k3, PS) | 32% | – | –
ATGAGTCGGTCACTTG (sugars k3 d10 k3, PS) | 78% and 72% | – | –
ATGATATTAGAGACTG (sugars k3 d10 k3, PS) | 74% | – | –
ATGGAACAGTAACTTG (sugars k3 d10 k3, PS) | – | 3% | –
ATGGCAGTGGAGCTCC (sugars k3 d10 k3, PS) | 56% | – | –
ATGTGATAGCTGAGCT (sugars kkddddddddddkeke, PS) | – | 4% | –
ATGTGATAGCTGAGCT (sugars kkdddddddddkekek, PS) | – | 24% | –
ATGTGTATTACTCTTA (sugars kdddddddddkekeke, PS) | – | 36% and 49% | –
ATGTGTATTACTCTTA (sugars kkddddddddddkeke, PS) | – | 47% and 48% | –
ATGTGTATTACTCTTA (sugars kkdddddddddkekek, PS) | – | 54% and 49% | –
ATGTTAGCCAATTCCT (sugars k2 d9 e3 k2, PS) | – | 17% and 6% | –
ATGTTAGCCAATTCCT (sugars kdddddddddkekeke, PS) | – | 0% and 5% | –
ATGTTAGCCAATTCCT (sugars kkddddddddddkeke, PS) | – | 20% and 15% | –
ATTAATTCTCCTATGC (sugars k3 d10 k3, PS) | 15% | – | –
ATTCATTTTATGGACC (sugars k3 d10 k3, PS) | 42% | – | –
ATTCCAACAGGCGGAC (sugars k3 d10 k3, PS) | – | 2% | –
ATTTAAGTCATGTGTC (sugars k3 d10 k3, PS) | – | 17% | –
ATTTACACCGTTGCTC (sugars k3 d10 k3, PS) | – | 13% | –
ATTTACTGTTACCGAT (sugars k3 d10 k3, PS) | 29% | – | –
ATTTCACTGTAGGATT (sugars k3 d10 k3, PS) | 38% | – | –
ATTTTATGGACCACGC (sugars k3 d10 k3, PS) | 49% | – | –
ATTTTCACAAGCTGGG (sugars k3 d10 k3, PS) | 39% | – | –
CAAAAACTTGGGTCAC (sugars k3 d10 k3, PS) | 20% | – | –
CAAAAATGTCCCATCC (sugars k3 d10 k3, PS) | 19% | – | –
CAAAACTACTATTGTG (sugars k3 d10 k3, PS) | 23% | – | –
CAAACCTTAAGCTATT (sugars k3 d10 k3, PS) | – | – | target mRNA inhibition (MM.1R, 0.0625 µM): -13%; target mRNA inhibition (MM.1R, 0.25 µM): -5%; target mRNA inhibition (MM.1R, 4 µM): 6%

Sequence | target mRNA inhibition (SK-MEL-28, 4 µM) | target mRNA inhibition (MM.1R, 1 µM) | further results
CAAACTCCTCAGGGAA (sugars k4 d8 k4, PS) | 17% | – | –
CAAAGAGGGTCACAGG (sugars k3 d10 k3, PS) | 63% | – | –
CAAATTCAGGAGAGCC (sugars k3 d10 k3, PS) | 19% | – | –
CAAATTCCCGGAGGAA (sugars k3 d10 k3, PS) | 5% | – | –
CAACAGAGCTGAGAGT (sugars k3 d10 k3, PS) | 20% | – | –
CAACAGTGCCAGAGCA (sugars k3 d10 k3, PS) | 11% | – | –
CAACAGTTCAAGTATT (sugars k3 d10 k3, PS) | 35% | – | –
CAAGACCCCGTATCCC (sugars k3 d10 k3, PS) | 44% | – | –
CAAGCAGTGATGTCAG (sugars kkdddddddddkdkdk, PS) | – | 46% and 49% | –
CAAGCAGTGATGTCAG (sugars kkdddddddddkekek, PS) | – | 51% and 52% | –
CAAGCATAAAAGGTTC (sugars k3 d10 k3, PS) | 29% | – | –
CAAGTAATTTTAAGGC (sugars k3 d10 k3, PS) | 41% | – | –
CAAGTGTCTAAAGTCC (sugars kddddddddddkekek, PS) | – | 7% and 12% | –
CAAGTGTCTAAAGTCC (sugars kdddddddddkekeke, PS) | – | 11% and 10% | –
CAATAATCTCCCAGCA (sugars k3 d10 k3, PS) | 37% | – | –
CAATATGCTTCCAACC (sugars k3 d10 k3, PS) | -15% | – | –
CAATTAGCTCTTCTAT (sugars k3 d10 k3, PS) | 14% | – | –
CAATTTACATCTTACT (sugars k3 d10 k3, PS) | 21% | – | –
CACAACTGCAGTTTGA (sugars k3 d10 k3, PS) | 14% | – | –
CACAAGCAGTGATGTC (sugars k3 d10 k3, PS) | 60% | – | –
CACATAACTCAGGCAA (sugars k3 d10 k3, PS) | 37% | – | –
CACATCAATGTTTTAG (sugars k3 d10 k3, PS) | – | 66% and 75% and 72% | target mRNA inhibition (H929, 0.04 µM): 14%; target mRNA inhibition (KMS11, 0.2 µM): 61% and 78%; target mRNA inhibition (MM.1R, 0.0625 µM): 48%; target mRNA inhibition (MM.1R, 0.25 µM): 62%; target mRNA inhibition (MM.1R, 4 µM): 89%
CACATTAAAGGGTAAG (sugars k3 d10 k3, PS) | -1% | – | –
CACCAGGAAACCGCTG (sugars k3 d10 k3, PS) | 15% | – | –
CACCCACACAAGTCTT (sugars k4 d8 k4, PS) | 14% | – | –
CACGAAACACAGTCTG (sugars k3 d10 k3, PS) | 52% | – | –

Sequence | target mRNA inhibition (SK-MEL-28, 4 µM) | target mRNA inhibition (MM.1R, 1 µM) | further results
CACGAAGATTCAAAAG (sugars k3 d10 k3, PS) | 10% | – | –
CACGAGGCACCGCACT (sugars k3 d10 k3, PS) | -13% | – | –
CACTATGGTAGGAGTG (sugars k3 d10 k3, PS) | -12% | – | –
CACTATTAAGAACTTG (sugars k3 d10 k3, PS) | 33% | – | –
CACTCATCTTGACATT (sugars k3 d10 k3, PS) | 36% | – | –
CACTTGTCTTGGGTGG (sugars k3 d10 k3, PS) | 45% | – | –
CACTTTAAAAGTTGAC (sugars k3 d10 k3, PS) | 28% | – | –
CAGAAATCACGAGGTT (sugars k3 d10 k3, PS) | – | 25% | –
CAGAAGATCTCTACTG (sugars k3 d10 k3, PS) | 12% | – | –
CAGACCTTATGCTTGG (sugars k3 d10 k3, PS) | 10% | – | –
CAGAGACGCGGTGAGA (sugars k3 d10 k3, PS) | -61% | – | –
CAGAGCTCCGGAGTCA (sugars k3 d10 k3, PS) | – | -6% | –
CAGCAAGTGTCTTCCA (sugars k3 d10 k3, PS) | 64% | – | –
CAGCATGAGCTCGGTC (sugars k3 d10 k3, PS) | – | 22% | –
CAGCATTGGACCCACG (sugars k3 d10 k3, PS) | – | 4% | –
CAGTACAGTCCACTCC (sugars k3 d10 k3, PS) | – | 5% | –
CAGTCTCAAAAACGGG (sugars k3 d10 k3, PS) | 51% | – | –
CAGTGACTTGCATCCA (sugars kkdddddddddekeke, PS) | – | 34% | –
CAGTGACTTGCATCCA (sugars kkdddddddddkdkdk, PS) | – | 36% | –
CAGTGATGTCAGGTTT (sugars k2 d9 e3 k2, PS) | – | 56% | target mRNA inhibition (MM.1R, 0.074 µM): 0%; target mRNA inhibition (MM.1R, 0.222 µM): 12%; target mRNA inhibition (MM.1R, 0.666 µM): 34%; target mRNA inhibition (MM.1R, 2 µM): 57%
CAGTTGTAAATGAGTC (sugars k3 d9 k3 e1, PS) | – | 68% | target mRNA inhibition (MM.1R, 0.074 µM): 26%; target mRNA inhibition (MM.1R, 0.222 µM): 42%; target mRNA inhibition (MM.1R, 0.666 µM): 65%; target mRNA inhibition (MM.1R, 2 µM): 84%
CAGTTGTAAATGAGTC (sugars k3 d10 k3, PS) | 89% and 86% | – | –
CATAGCTAGTTCATTC (sugars k3 d10 k3, PS) | 35% | – | –
CATATTCCAACAGGCG (sugars k3 d10 k3, PS) | – | -1% | –
CATCACTCTAGTCAGT (sugars k3 d10 k3, PS) | 59% | – | –
CATCACTTGGTCAATT (sugars k3 d10 k3, PS) | 29% | – | –

Sequence | target mRNA inhibition (SK-MEL-28, 4 µM) | target mRNA inhibition (MM.1R, 1 µM) | further results
CATCATGTAGTTGTGA (sugars k3 d10 k3, PS) | 41% | – | –
CATGAAATCCAAGGTA (sugars k3 d10 k3, PS) | 49% | – | –
CATGAGGGTGACACAC (sugars k3 d10 k3, PS) | 47% | – | –
CATGATGTATACCAAC (sugars k3 d10 k3, PS) | 51% | – | –
CATGGTATTTTTCCGT (sugars k3 d10 k3, PS) | – | 38% and 48% | target mRNA inhibition (MM.1R, 0.0625 µM): 4%; target mRNA inhibition (MM.1R, 0.25 µM): 36%; target mRNA inhibition (MM.1R, 4 µM): 66%
CATGGTTACTAATTCC (sugars k3 d10 k3, PS) | – | 25% | –
CATGTAAAGTCTGCTG (sugars k3 d10 k3, PS) | 58% | – | –
CATTACTAGATTGTAG (sugars k3 d10 k3, PS) | 9% | – | –
CATTACTTAGACATTA (sugars k3 d10 k3, PS) | 19% | – | –
CATTTACTGTTACCGA (sugars k3 d10 k3, PS) | 79% | – | target mRNA inhibition (MM.1R, 0.074 µM): -14%; target mRNA inhibition (MM.1R, 0.222 µM): 0%; target mRNA inhibition (MM.1R, 0.666 µM): -9%; target mRNA inhibition (MM.1R, 2 µM): 10%
CCAAACCTTAAGCTAT (sugars k3 d10 k3, PS) | – | 18% and 34% | –
CCAAAGGGTTCAGTGT (sugars k3 d10 k3, PS) | 26% | – | –
CCAAATGTGGAGCTCC (sugars k3 d10 k3, PS) | 23% | – | –
CCAAATTCCCGGAGGA (sugars k3 d10 k3, PS) | – | -25% | –
CCAACGACAGCATAGC (sugars k3 d10 k3, PS) | 76% | – | –
CCAAGGATAACCTGAA (sugars k3 d10 k3, PS) | 44% | – | –
CCAATACATATCCATG (sugars k3 d10 k3, PS) | 60% | – | –
CCACACAAGTCTTAGG (sugars k3 d10 k3, PS) | – | 15% | –
CCACATACCTGAAACG (sugars k3 d10 k3, PS) | – | -9% | –
CCACATTAGCAATTAG (sugars k3 d10 k3, PS) | 19% | – | –
CCACTGGCGGAGCTTC (sugars k3 d10 k3, PS) | 36% | – | –
CCAGCTTCGGTCGAGG (sugars k3 d10 k3, PS) | – | -5% | –
CCAGGAAACCGCTGGC (sugars k3 d10 k3, PS) | 38% | – | –
